Literature values as cited in patent publication US11202800B1, “Methods for treating emotional cognitive disconnect” (priority 2013, dated 2021).

What was measured:
[1] = system: Ca^2+ plus calmodulin dependent phosphorylation of synapsin I; conditions: in rats
[2] = system: Ca^2+ plus calmodulin-stimulated reactions; conditions: in rats

[Mg+2] [Mg^2+, magnesium]
Mg^2+ concentration above which Ca^2+ plus calmodulin dependent phosphorylation of synapsin I is progressively inhibited [1]: above 5 mM | Mg^2+ concentration range in which Ca^2+ plus calmodulin-stimulated reactions are maximally active [2]: 30 to 50 mM
